This note sets out measurements from patent publication US20110306597A1, “Nicotinamide Derivatives” (priority 2008, published 2011).

Usually IC50 stands for the midpoint of a concentration-inhibition curve.

The target in this experiment is human recombinant H-PGDS (Homo sapiens, UniProt O60760). The experiment is described as follows: Fluorescence Intensity h-PGDS TBA Enzyme Assay. The format is biochemical. Particulars: 1:175,000 human recombinant H-PGDS, highest inhibitor concentration typically 1 μM. A digest of the protocol: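 Recombinant human H-PGDS preincubated 10 min at room temperature with inhibitor in 100 mM Tris pH 8.0, 100 μM MgCl2, 2.5 mM glutathione, 0.5% DMSO; 5.0 μM PGH2 added, stopped after 42 s with FeCl2/citric acid. Remaining PGH2 measured as MDA–TBA fluorescence (ex 530/em 565 nm); IC50 by 4-parameter fit, 11 concentrations.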
Chain of human recombinant H-PGDS (O60760 whole entry): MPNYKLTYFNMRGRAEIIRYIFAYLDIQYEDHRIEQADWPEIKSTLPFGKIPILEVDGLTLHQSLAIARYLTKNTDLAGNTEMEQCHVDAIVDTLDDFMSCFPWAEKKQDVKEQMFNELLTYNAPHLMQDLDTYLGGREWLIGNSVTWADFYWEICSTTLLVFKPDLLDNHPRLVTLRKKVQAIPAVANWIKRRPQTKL
As to `Cc1cccc2c1OCCC2NC(=O)c1ccc(-c2cc(F)cc(F)c2)nc1` (stereo not shown) [Example 533, 6-(3,5-Difluorophenyl)-N-(8-methyl-3,4-dihydro-2H-chromen-4-yl)nicotinamide], the half-inhibitory concentration (IC50) worked out at 8.79 nM.

Regarding `O=C(NCC1C(=O)Nc2ccc(F)cc21)c1ccc(-c2cccc(F)c2)nc1` (stereo not shown) [Example 534, N-[(5-Fluoro-2-oxo-2,3-dihydro-1H-indol-3-yl)methyl]-6-(3-fluorophenyl)nicotinamide], the IC50 amounted to 1.04 nM.

Regarding `O=C(NCc1coc(-c2ccc(F)cc2)n1)c1ccc(-c2cccc(F)c2)nc1` [Example 535, 6-(3-Fluorophenyl)-N-{[2-(4-fluorophenyl)-1,3-oxazol-4-yl]methyl}nicotinamide], the IC50 worked out at 5.56 nM.

With `Cc1ccc2c(c1)C(NC(=O)c1ccc(-c3cc(F)cc(F)c3)nc1)CC(C)(C)O2` (stereo not shown) [Example 536, 6-(3,5-Difluorophenyl)-N-(2,2,6-trimethyl-3,4-dihydro-2H-chromen-4-yl)nicotinamide], the IC50 stood at 53.5 nM.

On to `CCC(C)C(CO)NC(=O)c1ccc(-c2cccc(F)c2)nc1` (stereo not shown) [Example 537, 6-(3-Fluorophenyl)-N-[1-(hydroxymethyl)-2-methylbutyl]nicotinamide], for which the IC50 was 61.2 nM.

As for `Cc1ccc2c(c1C)OCCC2NC(=O)c1ccc(-c2cc(F)cc(F)c2)nc1` (stereo not shown) [Example 538, 6-(3,5-Difluorophenyl)-N-(7,8-dimethyl-3,4-dihydro-2H-chromen-4-yl)nicotinamide], the IC50 is 30.1 nM.

Regarding `CC(C)(C)[C@@H](CO)NC(=O)c1ccc(-c2cccc(F)c2)nc1` [Example 539, 6-(3-Fluorophenyl)-N-[(1S)-1-(hydroxymethyl)-2,2-dimethylpropyl]nicotinamide], the IC50 was determined as 64.4 nM.

Regarding `COc1ccc(CNC(=O)c2ccc(-c3ccccc3)nc2)cc1OC` [Example 540, N-(3,4-Dimethoxybenzyl)-6-phenylnicotinamide], the IC50 was found to be 5.41 nM.

In the case of `Cc1ccccc1CNC(=O)c1ccc(-c2cc(F)cc(F)c2)nc1` [Example 541, 6-(3,5-Difluorophenyl)-N-(2-methylbenzyl)nicotinamide], the IC50 was found to be 16.9 nM.

Turning to `O=C(NCC1COc2ccccc2C1)c1ccc(-c2cc(F)cc(F)c2)nc1` (stereo not shown) [Example 542, 6-(3,5-Difluorophenyl)-N-(3,4-dihydro-2H-chromen-3-ylmethyl)nicotinamide], the IC50 was determined as 39.1 nM.

As for `COc1cc(F)cc(-c2ccc(C(=O)NCCCN3CCCC3=O)cn2)c1` [Example 543, 6-(3-Fluoro-5-methoxyphenyl)-N-[3-(2-oxopyrrolidin-1-yl)propyl]nicotinamide], the IC50 was found to be 104 nM.

On to `Cc1nc(CCNC(=O)c2cnc(-c3cccc(F)c3)c(Cl)c2)cs1` [Example 544, 5-Chloro-6-(3-fluorophenyl)-N-[2-(2-methyl-1,3-thiazol-4-yl)ethyl]nicotinamide], for which the IC50 is 12 nM.

Regarding `COc1ccc(CNC(=O)c2cnc(-c3cccc(F)c3)c(Cl)c2)cc1OC` [Example 545, 5-Chloro-N-(3,4-dimethoxybenzyl)-6-(3-fluorophenyl)nicotinamide], the IC50 came to 14.2 nM.

`O=C(NCc1nc2ccccc2s1)c1cnc(-c2cccc(F)c2)c(Cl)c1` [Example 546, N-(1,3-Benzothiazol-2-ylmethyl)-5-chloro-6-(3-fluorophenyl)nicotinamide]: the IC50 was 59.6 nM.

With `O=C(NCC1COc2ccccc2C1)c1cnc(-c2cccc(F)c2)c(Cl)c1` (stereo not shown) [Example 547, 5-Chloro-N-(3,4-dihydro-2H-chromen-3-ylmethyl)-6-(3-fluorophenyl)nicotinamide], the IC50 was 98.4 nM.

Turning to `COc1cc(CNC(=O)c2cnc(-c3cccc(F)c3)c(Cl)c2)cc2c1OCCO2` [Example 548, 5-Chloro-6-(3-fluorophenyl)-N-[(8-methoxy-2,3-dihydro-1,4-benzodioxin-6-yl)methyl]nicotinamide], the IC50 stood at 54.7 nM.

Consider `O=C(NCC(O)c1ccccc1F)c1cnc(-c2cccc(F)c2)c(Cl)c1` (stereo not shown) [Example 549, 5-Chloro-6-(3-fluorophenyl)-N-[2-(2-fluorophenyl)-2-hydroxyethyl]nicotinamide], for which the IC50 worked out at 37.9 nM.

As for `CCCOCCCNC(=O)c1cnc(-c2cccc(F)c2)c(Cl)c1` [Example 550, 5-Chloro-6-(3-fluorophenyl)-N-(3-propoxypropyl)nicotinamide], the IC50 was found to be 30.4 nM.

Turning to `O=C(NCCCn1ncc2ccccc21)c1cnc(-c2cccc(F)c2)c(Cl)c1` [Example 551, 5-Chloro-6-(3-fluorophenyl)-N-[3-(1H-indazol-1-yl)propyl]nicotinamide], the IC50 worked out at 84.7 nM.

Consider `O=C(NCCN1CCOCC1)c1cnc(-c2cccc(F)c2)c(Cl)c1` [Example 552, 5-Chloro-6-(3-fluorophenyl)-N-(2-morpholin-4-ylethyl)nicotinamide], for which the IC50 is 60.8 nM.

Regarding `O=C(NCCC1CCCCO1)c1cnc(-c2cccc(F)c2)c(Cl)c1` (stereo not shown) [Example 553, 5-Chloro-6-(3-fluorophenyl)-N-[2-(tetrahydro-2H-pyran-2-yl)ethyl]nicotinamide], the IC50 turned out to be 31.8 nM.

With `CNS(=O)(=O)c1ccc(CNC(=O)c2cnc(-c3cccc(F)c3)c(Cl)c2)cc1` [Example 554, 5-Chloro-6-(3-fluorophenyl)-N-{4-[(methylamino)sulfonyl]benzyl}nicotinamide], the IC50 worked out at 223 nM.

For `COc1cc(F)cc(-c2ccc(C(=O)NCc3ccc(OC)c(OC)c3)cn2)c1` [Example 556, N-(3,4-Dimethoxybenzyl)-6-(3-fluoro-5-methoxyphenyl)nicotinamide], the IC50 came to 90 nM.

For the compound `CCCOCCCNC(=O)c1ccc(-c2cc(F)cc(OC)c2)nc1` [Example 557, 6-(3-Fluoro-5-methoxypheny)-N-(3-propoxypropyl)nicotinamide], the half-maximal inhibitory concentration (IC50) came out at 89.6 nM.

On to `COc1cc(F)cc(-c2ccc(C(=O)NCC3CCN(C(C)=O)CC3)cn2)c1` [Example 558, N-[(1-Acetylpiperidin-4-yl)methyl]-6-(3-fluoro-5-methoxyphenyl)nicotinamide], for which the IC50 was 119 nM.

Turning to `CNS(=O)(=O)c1ccc(CNC(=O)c2ccc(-c3cc(F)cc(OC)c3)nc2)cc1` [Example 559, 6-(3-Fluoro-5-methoxyphenyl)-N-{4-[(methylamino)sulfonyl]benzyl}nicotinamide], the IC50 was found to be 440 nM.

For the compound `COc1cc(F)cc(-c2ccc(C(=O)NCCC3CCCCO3)cn2)c1` (stereo not shown) [Example 560, 6-(3-Fluoro-5-methoxyphenyl)-N-[2-(tetrahydro-2H-pyran-2-yl)ethyl]nicotinamide], the IC50 amounted to 129 nM.

Consider `CN(C)CCOc1ccc(CNC(=O)c2cnc(-c3cccc(F)c3)c(Cl)c2)cc1` [Example 561, 5-Chloro-N-{4-[2-(dimethylamino)ethoxy]benzyl}-6-(3-fluorophenyl)nicotinamide], for which the IC50 stood at 19.8 nM.

As for `Cc1ccc(C#N)c(N2C[C@H](NC(=O)c3ccc(-c4cccc(F)c4)nc3)[C@@H](O)C2)n1` [Example 562, N-[(3S,4S)-1-(3-Cyano-6-methylpyridin-2-yl)-4-hydroxypyrrolidin-3-yl]-6-(3-fluorophenyl)nicotinamide], the IC50 stood at 4.89 nM.

Consider `Cc1cc(C)c(C#N)c(N2C[C@H](NC(=O)c3ccc(-c4cccc(F)c4)nc3)[C@@H](O)C2)n1` [Example 563, N-[(3S,4S)-1-(3-Cyano-4,6-dimethylpyridin-2-yl)-4-hydroxypyrrolidin-3-yl]-6-(3-fluorophenyl)nicotinamide], for which the IC50 was determined as 5.15 nM.

With `CCc1cn2nc(N3C[C@H](NC(=O)c4ccc(-c5cccc(F)c5)nc4)[C@@H](O)C3)ccc2n1` [Example 564, N-[(3S,4S)-1-(2-ethylimidazo[1,2-b]pyridazin-6-yl)-4-hydroxypyrrolidin-3-yl]-6-(3-fluorophenyl)nicotinamide], the 50% inhibitory concentration (IC50) is 61.6 nM.

As to `COc1ccc(CNC(=O)c2ccc(-c3cc(F)cc(F)c3)nc2)cc1OC` [Example 567, 6-(3,5-Difluorophenyl)-N-(3,4-dimethoxybenzyl)nicotinamide], the IC50 is 10.6 nM.

`O=C(NCC1C(=O)Nc2ccccc21)c1ccc(-c2cc(F)cc(F)c2)nc1` (stereo not shown) [Example 568, 6-(3,5-Difluorophenyl)-N-[(2-oxo-2,3-dihydro-1H-indol-3-yl)methyl]nicotinamide]: the IC50 is 2.63 nM.

As to `CCCOCCCNC(=O)c1ccc(-c2cc(F)cc(F)c2)nc1` [Example 569, 6-(3,5-Difluorophenyl)-N-(3-propoxypropyl)nicotinamide], the IC50 was found to be 25.1 nM.

For `O=C(NCC1CCCN(c2ccccn2)C1)c1ccc(-c2cc(F)cc(F)c2)nc1` (stereo not shown) [Example 570, 6-(3,5-Difluorophenyl)-N-[(1-pyridin-2-ylpiperidin-3-yl)methyl]nicotinamide], the IC50 was 32.5 nM.

As to `CNS(=O)(=O)c1ccc(CNC(=O)c2ccc(-c3cc(F)cc(F)c3)nc2)cc1` [Example 571, 6-(3,5-Difluorophenyl)-N-{4-[(methylamino)sulfonyl]benzyl}nicotinamide], the IC50 was found to be 62.1 nM.

Consider `O=C(NC[C@@H]1COc2ccccc2C1)c1ccc(-c2cccc(F)c2)nc1` [Example 572], for which the IC50 amounted to 0.886 nM.

Consider `O=C(NC[C@H]1COc2ccccc2C1)c1ccc(-c2cccc(F)c2)nc1` [Example 573], for which the IC50 is 3.24 nM.

With `CNC(=O)N1[C@@H]2CC[C@H]1C[C@H](NC(=O)c1ccc(-c3cccc(F)c3)nc1)C2` [Example 594, (3-exo)-3-({[6-(3-Fluorophenyl)-pyridin-3-yl]carbonyl}amino)-N-methyl-8-azabicyclo[3.2.1]octane-8-carboxamide], the concentration for half-maximal inhibition (IC50) came to 17 nM.

For `CN(C)C(=O)N1[C@@H]2CC[C@H]1C[C@H](NC(=O)c1ccc(-c3cccc(F)c3)nc1)C2` [Example 595, (3-exo)-3-({[6-(3-Fluorophenyl)-pyridin-3-yl]carbonyl}amino)-N,N-dimethyl-8-azabicyclo[3.2.1]octane-8-carboxamide], the 50% inhibitory concentration (IC50) stood at 3 nM.
